Target: p300 histone acetyltransferase (Homo sapiens, UniProt Q09472)
Assay: in vitro histone acetyltransferase assay with purified human p300
Format: biochemical

p300 histone acetyltransferase, sequence (Q09472 2-2414): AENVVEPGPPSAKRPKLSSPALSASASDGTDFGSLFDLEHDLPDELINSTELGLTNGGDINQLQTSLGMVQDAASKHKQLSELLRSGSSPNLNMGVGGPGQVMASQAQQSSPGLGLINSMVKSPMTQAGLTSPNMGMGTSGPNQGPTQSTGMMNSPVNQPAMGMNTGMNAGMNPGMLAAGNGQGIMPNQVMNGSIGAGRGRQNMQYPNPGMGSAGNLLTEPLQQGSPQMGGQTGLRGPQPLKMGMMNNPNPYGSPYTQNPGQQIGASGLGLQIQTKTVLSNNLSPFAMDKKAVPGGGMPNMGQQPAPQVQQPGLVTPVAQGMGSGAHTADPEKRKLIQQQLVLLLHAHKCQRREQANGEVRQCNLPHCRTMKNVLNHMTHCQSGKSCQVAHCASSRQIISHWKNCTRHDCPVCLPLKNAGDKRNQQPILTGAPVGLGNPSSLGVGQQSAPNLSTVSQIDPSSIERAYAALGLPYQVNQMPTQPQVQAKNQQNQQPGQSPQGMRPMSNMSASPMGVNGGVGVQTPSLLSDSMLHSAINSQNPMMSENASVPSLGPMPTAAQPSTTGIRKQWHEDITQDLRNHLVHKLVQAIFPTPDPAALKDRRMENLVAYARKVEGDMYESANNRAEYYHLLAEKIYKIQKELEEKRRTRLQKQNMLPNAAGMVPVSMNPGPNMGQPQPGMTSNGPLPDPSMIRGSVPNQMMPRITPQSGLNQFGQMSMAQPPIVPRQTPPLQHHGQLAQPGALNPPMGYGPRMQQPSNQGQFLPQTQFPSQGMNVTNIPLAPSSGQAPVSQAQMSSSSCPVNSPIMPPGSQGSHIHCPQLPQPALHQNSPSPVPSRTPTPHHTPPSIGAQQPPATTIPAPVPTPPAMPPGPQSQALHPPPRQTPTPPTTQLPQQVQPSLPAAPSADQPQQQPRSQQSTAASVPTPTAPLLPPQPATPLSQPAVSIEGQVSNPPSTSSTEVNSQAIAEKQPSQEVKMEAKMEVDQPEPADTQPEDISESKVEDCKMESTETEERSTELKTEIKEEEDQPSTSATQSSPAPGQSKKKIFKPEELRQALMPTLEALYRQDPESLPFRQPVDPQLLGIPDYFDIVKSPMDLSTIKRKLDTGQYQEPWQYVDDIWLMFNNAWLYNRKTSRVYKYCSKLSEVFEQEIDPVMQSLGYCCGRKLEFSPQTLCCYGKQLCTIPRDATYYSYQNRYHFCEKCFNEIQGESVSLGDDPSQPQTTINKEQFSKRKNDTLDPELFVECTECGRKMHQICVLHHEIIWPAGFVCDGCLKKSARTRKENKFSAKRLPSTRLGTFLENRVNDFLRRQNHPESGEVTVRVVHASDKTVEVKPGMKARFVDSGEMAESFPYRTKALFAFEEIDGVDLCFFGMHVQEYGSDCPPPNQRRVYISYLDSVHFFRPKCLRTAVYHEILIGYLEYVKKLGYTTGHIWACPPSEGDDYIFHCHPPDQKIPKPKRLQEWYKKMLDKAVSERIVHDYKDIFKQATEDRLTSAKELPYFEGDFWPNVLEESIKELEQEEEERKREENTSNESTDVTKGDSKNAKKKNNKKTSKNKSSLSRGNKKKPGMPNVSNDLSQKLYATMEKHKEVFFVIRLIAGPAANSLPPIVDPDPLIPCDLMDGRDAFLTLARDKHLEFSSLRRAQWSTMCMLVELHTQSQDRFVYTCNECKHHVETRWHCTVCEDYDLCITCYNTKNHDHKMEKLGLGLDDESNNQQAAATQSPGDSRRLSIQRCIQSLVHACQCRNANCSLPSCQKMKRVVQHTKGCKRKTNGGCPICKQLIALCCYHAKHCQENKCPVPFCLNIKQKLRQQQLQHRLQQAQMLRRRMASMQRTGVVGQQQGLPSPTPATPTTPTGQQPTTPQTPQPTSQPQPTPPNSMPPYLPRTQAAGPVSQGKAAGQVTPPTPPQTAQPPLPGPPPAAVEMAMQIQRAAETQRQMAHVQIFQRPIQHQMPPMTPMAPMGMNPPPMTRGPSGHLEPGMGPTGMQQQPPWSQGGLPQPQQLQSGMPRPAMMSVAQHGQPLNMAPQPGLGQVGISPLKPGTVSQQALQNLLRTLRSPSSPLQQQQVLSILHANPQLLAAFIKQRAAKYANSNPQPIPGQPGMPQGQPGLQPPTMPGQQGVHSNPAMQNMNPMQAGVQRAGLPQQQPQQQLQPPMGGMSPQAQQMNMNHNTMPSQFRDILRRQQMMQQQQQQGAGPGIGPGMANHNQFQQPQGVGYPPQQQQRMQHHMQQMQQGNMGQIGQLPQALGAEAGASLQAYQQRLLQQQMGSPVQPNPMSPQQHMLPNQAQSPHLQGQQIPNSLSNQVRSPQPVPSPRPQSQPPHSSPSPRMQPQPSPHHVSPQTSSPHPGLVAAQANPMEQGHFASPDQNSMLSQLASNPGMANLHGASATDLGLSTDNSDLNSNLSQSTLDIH

COc1ccc(/C(Cl)=C(/C=O)c2ccc(OC)cc2)cc1 [WD, (Z) 3-chloro-2,3-bis(4-methoxyphenyl)acrylaldehyde] gave an IC50 of 4.2 µM.
